± gives the expanded uncertainty stated by the source.
Test: refractive index (Na D-line) (dimensionless); xn = mol fraction of the nth substance listed
Conditions: 101 kPa, Liquid

CCn1cc[n+](C)c1.O=S(=O)([O-])C(F)(F)F [1-ethyl-3-methylimidazolium trifluoromethanesulfonate] + CC(C)=O
refractive index
Conditions | 288.15 K | 298.15 K | 308.15 K | 318.15 K
x1 = 0.04957 | 1.37495 ± 0.0013 | 1.36994 ± 0.0013 | 1.36575 ± 0.0013 | 1.36218 ± 0.0013
x1 = 0.1005 | 1.38499 ± 0.0013 | 1.38033 ± 0.0013 | 1.37615 ± 0.0013 | 1.37308 ± 0.0013
x1 = 0.1503 | 1.39293 ± 0.0013 | 1.38854 ± 0.0013 | 1.38475 ± 0.0013 | 1.38186 ± 0.0013
x1 = 0.2007 | 1.39936 ± 0.0013 | 1.39527 ± 0.0013 | 1.39155 ± 0.0013 | 1.38862 ± 0.0013
x1 = 0.2995 | 1.40865 ± 0.0013 | 1.40492 ± 0.0013 | 1.40133 ± 0.0013 | 1.39777 ± 0.0013
x1 = 0.3973 | 1.41585 ± 0.0013 | 1.41237 ± 0.0013 | 1.409 ± 0.0013 | 1.40574 ± 0.0013
x1 = 0.5018 | 1.42117 ± 0.0013 | 1.41787 ± 0.0013 | 1.41464 ± 0.0013 | 1.41148 ± 0.0013
x1 = 0.5996 | 1.42541 ± 0.0013 | 1.42225 ± 0.0013 | 1.41908 ± 0.0013 | 1.41604 ± 0.0013
x1 = 0.6973 | 1.42854 ± 0.0013 | 1.42549 ± 0.0013 | 1.4225 ± 0.0013 | 1.41953 ± 0.0013
x1 = 0.7733 | 1.43087 ± 0.0013 | 1.42786 ± 0.0013 | 1.4249 ± 0.0013 | 1.42199 ± 0.0013
x1 = 0.8452 | 1.43253 ± 0.0013 | 1.42963 ± 0.0013 | 1.42676 ± 0.0013 | 1.42392 ± 0.0013
x1 = 0.8988 | 1.43368 ± 0.0013 | 1.43085 ± 0.0013 | 1.42803 ± 0.0013 | 1.42518 ± 0.0013
x1 = 0.9559 | 1.43487 ± 0.0013 | 1.43207 ± 0.0013 | 1.42925 ± 0.0013 | 1.4265 ± 0.0013

CCn1cc[n+](C)c1.O=S(=O)([O-])C(F)(F)F [1-ethyl-3-methylimidazolium trifluoromethanesulfonate] + CCOC(C)=O
refractive index
Conditions | 288.15 K | 298.15 K | 308.15 K | 318.15 K | 328.15 K
x1 = 0.04887 | 1.38327 ± 0.0013 | 1.37802 ± 0.0013 | 1.37297 ± 0.0013 | 1.3691 ± 0.0013 | 1.3631 ± 0.0013
x1 = 0.1503 | 1.39622 ± 0.0013 | 1.39151 ± 0.0013 | 1.3881 ± 0.0013 | 1.38476 ± 0.0013 | 1.38129 ± 0.0013
x1 = 0.2004 | 1.40093 ± 0.0013 | 1.39666 ± 0.0013 | 1.3944 ± 0.0013 | 1.3917 ± 0.0013 | 1.38772 ± 0.0013
x1 = 0.2998 | 1.40907 ± 0.0013 | 1.40499 ± 0.0013 | 1.40234 ± 0.0013 | 1.39937 ± 0.0013 | 1.39558 ± 0.0013
x1 = 0.399 | 1.41507 ± 0.0013 | 1.41144 ± 0.0013 | 1.40854 ± 0.0013 | 1.40604 ± 0.0013 | 1.4031 ± 0.0013
x1 = 0.5006 | 1.42038 ± 0.0013 | 1.41682 ± 0.0013 | 1.41415 ± 0.0013 | 1.41137 ± 0.0013 | 1.40906 ± 0.0013
x1 = 0.5977 | 1.42469 ± 0.0013 | 1.42133 ± 0.0013 | 1.4186 ± 0.0013 | 1.41549 ± 0.0013 | 1.41251 ± 0.0013
x1 = 0.6974 | 1.42874 ± 0.0013 | 1.42566 ± 0.0013 | 1.42254 ± 0.0013 | 1.41963 ± 0.0013 | 1.41671 ± 0.0013
x1 = 0.7962 | 1.43118 ± 0.0013 | 1.42823 ± 0.0013 | 1.42528 ± 0.0013 | 1.42239 ± 0.0013 | 1.41954 ± 0.0013
x1 = 0.8474 | 1.43242 ± 0.0013 | 1.4295 ± 0.0013 | 1.42662 ± 0.0013 | 1.42376 ± 0.0013 | 1.42094 ± 0.0013
x1 = 0.9011 | 1.43367 ± 0.0013 | 1.43075 ± 0.0013 | 1.42792 ± 0.0013 | 1.42471 ± 0.0013 | 1.42195 ± 0.0013
x1 = 0.9491 | 1.43467 ± 0.0013 | 1.43182 ± 0.0013 | 1.42903 ± 0.0013 | 1.42624 ± 0.0013 | 1.42352 ± 0.0013

CCn1cc[n+](C)c1.O=S(=O)([O-])C(F)(F)F [1-ethyl-3-methylimidazolium trifluoromethanesulfonate] + COC(C)=O
refractive index
Conditions | 288.15 K | 298.15 K | 308.15 K | 318.15 K
x1 = 0.05083 | 1.37625 ± 0.0013 | 1.37116 ± 0.0013 | 1.3671 ± 0.0013 | 1.36334 ± 0.0013
x1 = 0.09991 | 1.38561 ± 0.0013 | 1.38057 ± 0.0013 | 1.37793 ± 0.0013 | 1.37521 ± 0.0013
x1 = 0.1515 | 1.39328 ± 0.0013 | 1.38873 ± 0.0013 | 1.38548 ± 0.0013 | 1.38291 ± 0.0013
x1 = 0.1998 | 1.39836 ± 0.0013 | 1.39419 ± 0.0013 | 1.39098 ± 0.0013 | 1.38871 ± 0.0013
x1 = 0.2997 | 1.40796 ± 0.0013 | 1.40429 ± 0.0013 | 1.40087 ± 0.0013 | 1.39857 ± 0.0013
x1 = 0.4003 | 1.41462 ± 0.0013 | 1.4112 ± 0.0013 | 1.40804 ± 0.0013 | 1.40487 ± 0.0013
x1 = 0.4958 | 1.42026 ± 0.0013 | 1.41695 ± 0.0013 | 1.41367 ± 0.0013 | 1.41049 ± 0.0013
x1 = 0.595 | 1.42444 ± 0.0013 | 1.42123 ± 0.0013 | 1.41831 ± 0.0013 | 1.41533 ± 0.0013
x1 = 0.6962 | 1.42797 ± 0.0013 | 1.42488 ± 0.0013 | 1.42201 ± 0.0013 | 1.41907 ± 0.0013
x1 = 0.7954 | 1.43089 ± 0.0013 | 1.42794 ± 0.0013 | 1.4251 ± 0.0013 | 1.42226 ± 0.0013
x1 = 0.8385 | 1.43234 ± 0.0013 | 1.42944 ± 0.0013 | 1.42649 ± 0.0013 | 1.42364 ± 0.0013
x1 = 0.8977 | 1.43347 ± 0.0013 | 1.43061 ± 0.0013 | 1.42771 ± 0.0013 | 1.42488 ± 0.0013
x1 = 0.9466 | 1.43451 ± 0.0013 | 1.4317 ± 0.0013 | 1.4289 ± 0.0013 | 1.42618 ± 0.0013

Source: the NIST ThermoML archive (doi:10.1021/je9005618)
